{"source": "patent US5661175A", "about": "“Hemiasterlin and geodiamolide TA” (priority 1995, dated 1997)", "key": {"[1]": {"test_system": "P-388", "experiment": "Antitumor cell screening, P-388 growth inhibition", "type": "cell-based, DBA/2 mouse", "conditions": "Mus musculus, 72 h; P388; three days incubation at 37° C.; approximate IC50", "protocol": "(§1) Cells were maintained in logarithmic phase of growth in Eagle's Minimum Essential Medium, with Earle's Balanced Salts, with 2.0 mM L-Glutamine, with non-essential Amino Acids, without Sodium Bicarbonate (EMEM/NEAA); supplemented with 10% Fetal Calf Serum (FCS), 10^-2M Sodium Bicarbonate and 0.1 g/l Penicillin-G+Streptomycin Sulfate.\n(§2) A simple screening procedure has been carried out to determine and compare the antitumor activity of these compounds, using an adapted form of the method described by Bergeron et al. (1984). The antitumor cell employed have been P-388 (suspension culture of a lymphoid neoplasm from DBA/2 mouse), A-549 (monolayer culture of a human lung carcinoma), HT-29 (monolayer culture of a human colon carcinoma) and MEL-28 (monolayer culture of a human melanoma).\n(§3) P-388 cells were seeded into 16 mm wells at 1×10^4 cells per well in 1 ml aliquots of MEM 5FCS containing the indicated concentration of drug. A separate set of cultures without drug was seeded as control growth to ensure that cells remained in exponential phase of growth. All determinations were carried out in duplicate. After three days of incubation at 37° C., 10% CO2 in a 98% humid atmosphere, an approximately IC50 was determined by comparing the growth in wells with drug to the growth in wells control."}, "[2]": {"test_system": "A-549", "experiment": "Antitumor cell screening, A-549 growth inhibition (Crystal Violet)", "type": "cell-based", "conditions": "Homo sapiens, 72 h; A549; three days incubation at 37° C.; approximate IC50", "protocol": "as §1, §2\nas §3, with “A-549, HT-29 and MEL-28” for “P-388 cells”, “2×10^4” for “1×10^4”, “10FCS” for “5FCS”, “the wells were stained with 0.1% Crystal Violet. An” for “an”"}, "[3]": {"test_system": "HT-29", "experiment": "Antitumor cell screening, HT-29 growth inhibition (Crystal Violet)", "type": "cell-based", "conditions": "Homo sapiens, HT-29, 72 h; HT29; three days incubation at 37° C.; approximate IC50", "protocol": "as §1, §2\nas §3, with “A-549, HT-29 and MEL-28” for “P-388 cells”, “2×10^4” for “1×10^4”, “10FCS” for “5FCS”, “the wells were stained with 0.1% Crystal Violet. An” for “an”"}, "[4]": {"test_system": "MEL-28", "experiment": "Antitumor cell screening, MEL-28 growth inhibition (Crystal Violet)", "type": "cell-based", "conditions": "Homo sapiens, SK-MEL-28, 72 h; MEL28; three days incubation at 37° C.; approximate IC50", "protocol": "as §1, §2\nas §3, with “A-549, HT-29 and MEL-28” for “P-388 cells”, “2×10^4” for “1×10^4”, “10FCS” for “5FCS”, “the wells were stained with 0.1% Crystal Violet. An” for “an”"}}, "data": [{"compound": "C/C1=C\\C(C)CC(C)OC(=O)C(C(C)C)NC(=O)C(Cc2ccc(O)c(I)c2)N(C)C(=O)C(C)NC(=O)C(C)C1", "note": "(stereo not shown) [Compound 3, geodiamolide TA]", "values": [{"measurement": "IC50", "setting": "[1]", "value": 0.01, "unit": "µg/mL"}, {"measurement": "IC50", "setting": "[2]", "value": 0.01, "unit": "µg/mL"}, {"measurement": "IC50", "setting": "[3]", "value": 0.005, "unit": "µg/mL"}, {"measurement": "IC50", "setting": "[4]", "value": 0.01, "unit": "µg/mL"}]}]}
